Test [1] concerns the target T1, Solute carrier family 22 member 6 (Homo sapiens, UniProt Q4U2R8).
T1 sequence (Q4U2R8 whole entry): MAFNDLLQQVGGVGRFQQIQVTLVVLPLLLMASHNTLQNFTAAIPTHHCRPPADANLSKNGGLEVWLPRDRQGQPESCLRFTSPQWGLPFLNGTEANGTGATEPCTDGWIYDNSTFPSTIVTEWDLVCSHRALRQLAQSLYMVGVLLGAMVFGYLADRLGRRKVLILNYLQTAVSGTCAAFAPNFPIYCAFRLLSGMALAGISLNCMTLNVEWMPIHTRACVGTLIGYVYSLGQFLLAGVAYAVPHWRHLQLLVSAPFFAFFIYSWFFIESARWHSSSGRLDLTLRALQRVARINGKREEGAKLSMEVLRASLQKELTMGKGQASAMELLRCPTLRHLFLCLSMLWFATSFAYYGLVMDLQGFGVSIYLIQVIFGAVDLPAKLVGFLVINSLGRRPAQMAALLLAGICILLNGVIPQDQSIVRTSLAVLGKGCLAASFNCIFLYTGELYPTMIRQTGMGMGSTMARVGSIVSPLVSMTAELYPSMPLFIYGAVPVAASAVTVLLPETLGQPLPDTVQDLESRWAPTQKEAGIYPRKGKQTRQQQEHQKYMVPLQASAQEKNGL
Nature of the test: TP_TRANSPORTER: inhibition of PAH uptake in OAT1-expressing CHO cells. The test is classed as functional, cell-based.

The target in test [2] is T1, Solute carrier family 22 member 6. In words: TP_TRANSPORTER: trans-stimulation in OAT1-COS7 cells. It counts as functional, cell-based, COS-7.
Test [3] shares this target. In words: TP_TRANSPORTER: inhibition of PAH uptake in OAT1-COS7 cells. It counts as functional, cell-based, COS-7.

The structures appear in SMILES notation.

The values that follow come from ChEMBL document CHEMBL2074104, “Interaction of cysteine conjugates with human and rabbit organic anion transporter 1” (J Pharmacol Exp Ther, 2003).

For the compound `N[C@@H](CSc1nc2ccccc2s1)C(=O)O`, in test [1], the IC50 was determined as 9.9 µM.
In test [2], `N[C@H](CSc1nc2ccccc2s1)C(=O)O` [BENZOTHIAZOLYLCYSTEINE] came in with an IC50 of 9.9 µM.
`N[C@H](CS/C(Cl)=C/Cl)C(=O)O` displayed a 50% inhibitory concentration (IC50) in test [3] of 208 µM.
